{"source": "patent US12338199B2", "about": "“Bis-octahydrophenanthrene carboxamides and protein conjugates thereof” (REGENERON PHARMACEUTICALS, INC., priority 2017, dated 2025)", "key": {"LXR alpha": {"target": "T1, LXR alpha (Homo sapiens, UniProt Q13133)", "T1 construct": "LXR alpha or beta LBD-GST; purchased ThermoFisher PV4655", "T1 sequence (Q13133 209-447 limits assumed)": "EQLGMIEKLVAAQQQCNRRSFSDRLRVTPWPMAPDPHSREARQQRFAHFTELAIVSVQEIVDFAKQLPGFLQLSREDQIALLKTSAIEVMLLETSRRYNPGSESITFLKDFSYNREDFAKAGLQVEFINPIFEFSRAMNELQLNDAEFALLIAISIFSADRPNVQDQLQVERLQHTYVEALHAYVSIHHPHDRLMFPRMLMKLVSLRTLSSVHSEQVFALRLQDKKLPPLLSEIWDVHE", "assay": "LanthaScreen TR-FRET LXR alpha Coactivator Assay (cell-free binding)", "settings": "TR-FRET, 12-point curve; read-out: Cell free binding LXRα IC50"}, "ABCG1": {"system": "ABCG1", "assay": "ABCG1 mRNA induction in differentiated THP-1 macrophages (TaqMan)", "type": "cell-based, human", "settings": "THP1 macrophages, 24-hour treatment; magnitude in words", "procedure": "To determine the ability of LXR agonists to activate ABCA1 and ABCG1 genes, the mRNA levels of these two genes in differentiated macrophages was measured. […] Cells were differentiated into macrophages by treatment with 100 nM Phorbol-12 myristate 13-acetate (Sigma, # P8139), which was added to the media described above, for 72 hours. […] Chloroform was then used for phase separation. The aqueous phase, containing total RNA, was purified using MagMAX™-96 for Microarrays Total RNA Isolation Kit (Ambion, Cat # AM1830) and reverse-transcribed into cDNA using SuperScript® VILO™ Master Mix (Invitrogen, Cat #11755050) as per the manufacturer's instructions. TaqMan® was performed using Gene Expression Master Mix, the ABI 7900HT Sequence Detection System (Applied Biosystems) and the primers and probes indicated below in Table 9. The GAPDH gene was used as the internal control gene to normalize any cDNA input differences."}, "THP1/LXR-Luc cells": {"system": "THP1/LXR-Luc cells", "assay": "LXR-luciferase reporter bioassay in PMA-differentiated THP1/LXR-Luc cells", "type": "cell-based, human", "settings": "for EC50: Homo sapiens, THP-1, 48 h, read-out: EC50", "from_the_text": "To test the efficacy of anti-MSR1 antibody-LXR conjugates in vitro, a cell-based LXR responsive luciferase reporter assay was developed. To generate the assay cell line, a LXR regulated luciferase reporter gene [Cignal Lenti LXR Reporter (luc) kit (Qiagen, Cat # CLS-001L)] was transduced into THP1 cells, and cells were selected for two weeks in puromycin. The lentivirus expresses the firefly luciferase gene under the control of a minimal CMV promoter and tandem repeats of the LXR transcriptional response element. The resulting cell line is referred to as THP1/LXR-Luc cells.\nTHP1/LXR-Luc cells were seeded onto 96 well plates at 40,000 cells/well in media containing RPMI supplemented with 10% FBS and pencillin/streptomycin and subsequently differentiated with 200 nM Phorbol Myristate Acetate (PMA) for 3 days. After the 3-day differentiation period, three-fold serial dilutions of antibody drug conjugates, unconjugated antibodies, or free payloads in fresh media were added to the cells at final concentration ranging from 100 nM to 0.01 nM. Media alone served as a blank control. Forty-eight hours later, luciferase activity was determined after the addition of One-Glo™ reagent (Promega, Cat # E6130) to each well. Relative light units (RLUs) were measured on a Victor luminometer (PerkinElmer) and EC50 values were determined using a four-parameter logistic equation over a 10-point dose response curve (GraphPad Prism). The signal to noise (S/N) was determined by calculating the ratio of RLU of standard one over RLU of standard eight for each of the unconjugated anti-MSR1 antibodies or free payloads. “LP #” represents a linker-payload for which the corresponding structures are provided elsewhere herein, and “P #” represents a payload for which the corresponding structures are provided elsewhere herein."}}, "note": "Where two headings read alike, the source gives them in different places."}
{"smiles": "C[C@]1(C(=O)NC(=O)[C@@]2(C)CCC[C@]3(C)c4cc(O)ccc4CC[C@@H]23)CCC[C@]2(C)c3cc(N)ccc3CC[C@@H]12", "note": "[Compound 9d, (1S,4aS,10aR)—N-[(1S,4aS,10aR)-6-Amino-1,4a-dimethyl-1,2,3,4,4a,9,10,10a-octahydrophenanthrene-1-carbonyl]-6-hydroxy-1,4a-dimethyl-1,2,3,4,4a,9,10,10a-octahydrophenanthrene-1-carboxamide]", "values": [{"measurement": "IC50", "setting": "LXR alpha", "value": "< 0.01", "unit": "µM"}, {"measurement": "ABCG1 induction EC50", "setting": "ABCG1", "value": "sub-picomolar"}, {"measurement": "EC50", "setting": "THP1/LXR-Luc cells; 48-hour time point, stimulation of THP1/Luc cells", "value": 0.0159, "unit": "µM"}, {"measurement": "EC50", "setting": "THP1/LXR-Luc cells; PMA-differentiated THP1/LXR-Luc cells, 48 hours, luciferase activity (One-Glo), 10-point dose response 100 nM to 0.01 nM", "value": 0.00114, "unit": "µM"}, {"measurement": "S/N (signal to noise, ratio of RLU of standard one over RLU of standard eight)", "setting": "THP1/LXR-Luc cells; PMA-differentiated THP1/LXR-Luc cells, 48 hours, luciferase activity", "value": 15.9}]}
